Test results: the supplement of paper PMC8882468

Experiments:
Experiment in all cases: CTG-3D luminescence at 96 h relative to day-0 seeding control (ratio to day 0); higher = more growth / less cytotoxicity; PDxO 3D drug screen (set 2), 96 h, CTG-3D normalised to day-0 seeding control.
HCI-002 = system: HCI-002 (organoid from a triple-negative breast cancer xenograft)
HCI-011.E2 = system: HCI-011.E2 (organoid from an ER-positive breast cancer xenograft)
HCI-012 = system: HCI-012 (organoid from a breast cancer xenograft)
HCI-017.E2 = system: HCI-017.E2 (organoid from an ER-positive breast cancer xenograft)
HCI-019 = system: HCI-019 (organoid from a triple-negative breast cancer xenograft)
HCI-023 = system: HCI-023 (organoid from a triple-negative breast cancer xenograft)

CC(=O)O[C@@]12CO[C@@H]1C[C@H](O)[C@@]1(C)C(=O)[C@H](O)C3=C(C)[C@@H](OC(=O)[C@H](O)[C@@H](NC(=O)OC(C)(C)C)c4ccccc4)C[C@@](O)([C@@H](OC(=O)c4ccccc4)[C@H]21)C3(C)C [docetaxel]
CTG-3D luminescence at 96 h
Conditions | 12.5 pM | 0.00025 µM | 0.005 µM | 0.1 µM | 1 µM | 10 µM | 100 µM | 625 fM
HCI-002, days in culture: 127 | 0.447 | 0.957 | 0.452 | 0.428 | 0.356 | 0.422 | 0.298 | 0.543
HCI-002, days in culture: 155 | 1.9 | 0.578 | 0.357 | 0.536 | 0.394 | 0.397 | 0.378 | 2.27
HCI-002, days in culture: 168 | 3.45 | 3.13 | 0.43 | 0.281 | 0.324 | 0.319 | 0.115 | 4.39
HCI-011.E2, days in culture: 74 | 2.53 | 2.12 | 1.78 | 1.48 | 1.09 | 0.702 | 0.133 | 2.19
HCI-012, days in culture: 214 | 1.03 | 0.8 | 0.461 | 0.578 | 0.404 | 0.777 | 0.105 | 0.817
HCI-012, days in culture: 243 | 1.3 | 1.44 | 0.758 | 0.52 | 0.65 | 0.926 | 0.441 | 1.69
HCI-012, days in culture: 256 | 2.14 | 2.22 | 1.58 | 0.695 | 0.649 | 0.506 | 0.405 | 2.16
HCI-012, days in culture: 284 | 2.14 | 3.21 | 1.16 | 0.569 | 0.537 | 0.49 | 0.0331 | 4.21
HCI-017.E2, days in culture: 85 | 2.47 | 1.92 | 0.986 | 0.975 | 0.797 | 0.598 | 0.154 | 2.7
HCI-019, days in culture: 173 | 1.24 | 0.84 | 0.655 | 1.38 | 0.99 | 0.699 | 0.368 | 0.768
HCI-019, days in culture: 194 | 1.66 | 2.03 | 0.858 | 0.59 | 0.552 | 0.764 | 0.27 | 3.06
HCI-019, days in culture: 215 | 1.52 | 0.972 | 0.281 | 0.399 | 0.342 | 0.484 | 0.0546 | 1.59
HCI-023, days in culture: 223 | 0.666 | 0.731 | 0.679 | 0.597 | 0.578 | 0.746 | 0.0587 | 0.745
HCI-023, days in culture: 238 | 0.654 | 0.598 | 0.69 | 0.7 | 0.901 | 0.651 | 0.265 | 0.619
HCI-023, days in culture: 252 | 1.03 | 0.858 | 0.757 | 1.04 | 0.812 | 1.27 | 0.603 | 1.14

CTG-3D luminescence at 96 h
Conditions | 12.5 pM | 0.00025 µM | 0.005 µM | 0.1 µM | 1 µM | 10 µM | 100 µM | 625 fM
HCI-011.E2 | 1.19 | 1.26 | 1.02 | 1.32 | 1.05 | 0.933 | 0.118 | 1.35
HCI-017.E2 | 1.34 | 1.47 | 1.2 | 1.36 | 1.14 | 0.78 | 0.13 | 1.38

COc1cccc2c1C(=O)c1c(O)c3c(c(O)c1C2=O)C[C@@](O)(C(=O)CO)C[C@@H]3O[C@H]1C[C@H](N)[C@@H](O)[C@H](C)O1 [epirubicin]
CTG-3D luminescence at 96 h
Conditions | 12.5 pM | 0.00025 µM | 0.005 µM | 0.1 µM | 1 µM | 10 µM | 100 µM | 625 fM
HCI-002, days in culture: 127 | 2.39 | 2.93 | 2.65 | 2.23 | 0.362 | 0.034 | -0.0164 | 3.16
HCI-002, days in culture: 155 | 5.42 | 5.17 | 4.75 | 2.9 | 0.251 | 0.0733 | -0.011 | 4.45
HCI-002, days in culture: 168 | 3.2 | 3.41 | 3.79 | 1.24 | 0.0925 | 0.0935 | -0.00758 | 3.54
HCI-011.E2, days in culture: 74 | 2.38 | 2.27 | 2.26 | 2.8 | 0.677 | 0.0499 | -0.0143 | 2.23
HCI-012, days in culture: 214 | 2.15 | 2.5 | 1.28 | 0.214 | 0.0452 | 0.0186 | -0.0053 | 5.03
HCI-012, days in culture: 243 | 1.9 | 2.59 | 1.74 | 0.228 | 0.0532 | 0.0739 | -0.006 | 2.23
HCI-012, days in culture: 256 | 1.75 | 2.22 | 1.73 | 0.43 | 0.059 | 0.0309 | -0.0077 | 2.4
HCI-012, days in culture: 284 | 1.9 | 2.3 | 1.39 | 0.413 | 0.0294 | 0.0662 | -0.00241 | 3.07
HCI-017.E2, days in culture: 85 | 2.09 | 2.02 | 1.7 | 2.1 | 0.743 | 1.02 | 0.0107 | 1.92
HCI-019, days in culture: 173 | 2.56 | 0.82 | 0.796 | 0.682 | 0.176 | 0.0215 | -0.00415 | 2.04
HCI-019, days in culture: 194 | 1.08 | 1.73 | 0.897 | 0.514 | 0.126 | 0.00997 | -0.00363 | 2.03
HCI-019, days in culture: 215 | 1.08 | 1.32 | 1.32 | 0.384 | 0.205 | 0.0145 | -0.000778 | 1.97
HCI-023, days in culture: 223 | 1.88 | 1.76 | 1.22 | 1.3 | 0.154 | 0.0393 | -0.00401 | 2.21
HCI-023, days in culture: 238 | 1.44 | 1.08 | 0.842 | 0.9 | 0.391 | 0.0393 | -0.00422 | 1.61
HCI-023, days in culture: 252 | 2.29 | 2.32 | 1.59 | 1.68 | 0.516 | 0.0524 | -0.00328 | 1.99

CTG-3D luminescence at 96 h
Conditions | 12.5 pM | 0.00025 µM | 0.005 µM | 0.1 µM | 1 µM | 10 µM | 100 µM | 625 fM
HCI-011.E2 | 1.49 | 1.68 | 1.53 | 1.6 | 0.861 | 0.0857 | -0.000843 | 1.72
HCI-017.E2 | 2.04 | 2.99 | 2.22 | 2.13 | 0.562 | 1.07 | 0.00216 | 2.33
